The results in this text go back to US9975907B2, “Pyrimidinones as PI3K inhibitors” (Incyte Corporation, priority 2009, dated 2018).

For one test, the target named is PI3Kα (Homo sapiens (Human), UniProt P42336). Kind of test: PI3K Enzyme Assay A2 ([γ-33P]ATP filter plate), PI3Kα. The class given is biochemical. The following applies: Assay A2, 1000 μM ATP. Here is the method:
Materials: Lipid kinase substrate, phosphoinositol-4,5-bisphosphate (PIP2), was purchased from Echelon Biosciences (Salt Lake City, Utah). PI3K isoforms α, β, δ and γ were purchased from Millipore (Bedford, Mass.). ATP, MgCh, DTT, EDTA, MOPS and CHAPS were purchased from Sigma-Aldrich (St. Louis, Mo.). The kinase reaction was conducted in clear-bottom 96-well plate from Thermo Fisher Scientific in a final volume of 24 μL. Inhibitors were first diluted serially in DMSO and added to the plate wells before the addition of other reaction components. The final concentration of DMSO in the assay was 0.5%. The PI3K assays were carried out at room temperature in 20 mM MOPS, pH 6.7, 10 mM MgCl2, 5 mM DTT and CHAPS 0.03%. The reaction mixture was prepared containing 50 μM PIP2, kinase and varying concentration of inhibitors. Reactions were initiated by the addition of ATP containing 2.2 μCi [γ-^33P]ATP to a final concentration of 1000 μM. […] Reactions were incubated for 180 min and terminated by the addition of 100 μL of 1 M potassium phosphate pH 8.0, 30 mM EDTA quench buffer. A 100 μL aliquot of the reaction solution was then transferred to 96-well Millipore MultiScreen IP 0.45 μm PVDF filter plate (The filter plate was prewetted with 200 μL 100% ethanol, distilled water, and 1 M potassium phosphate pH 8.0, respectively). The filter plate was aspirated on a Millipore Manifold under vacuum and washed with 18×200 μL wash buffer containing 1 M potassium phosphate pH 8.0 and 1 mM ATP. After drying by aspiration and blotting, the plate was air dried in an incubator at 37° C. overnight. Packard TopCount adapter (Millipore) was then attached to the plate followed with addition of 120 μL Microscint 20 scintillation cocktail (Perkin Elmer) in each well. After the plate sealing, the radioactivity of the product was determined by scintillation counting on Topcount (Perkin-Elmer). IC50 determination was performed by fitting the curve of percent control activity versus the log of the inhibitor concentration using the GraphPad Prism 3.0 software.

The target in another test is PI3Kδ (p110δ/p85α) (Homo sapiens (Human), UniProt O00329). Kind of test: AlphaScreen Assay for PI3Kδ (Assay A1). The class given is biochemical. Particulars: column a, 20 μM ATP. From the text: PI3-Kinase luminescent assay kit including lipid kinase substrate, D-myo-phosphatidylinositol 4,5-bisphosphate (PtdIns(4,5)P2)D (+)-sn-1,2-di-O-octanoylglyceryl, 3-O-phospho linked (PIP2), biotinylated I(1,3,4,5)P4, PI(3,4,5)P3 Detector Protein, was purchased from Echelon Biosciences (Salt Lake City, Utah). AlphaScreen™ GST Detection Kit including donor and acceptor beads was purchased from PerkinElmer Life Sciences (Waltham, Mass.). PI3Kδ (p110δ/p85α) was purchased from Millipore (Bedford, Mass.). ATP, MgCb, DTT, EDTA, HEPES and CHAPS were purchased from Sigma-Aldrich (St. Louis, Mo.).
Chain of PI3Kδ (p110δ/p85α) (O00329 whole entry, species assumed): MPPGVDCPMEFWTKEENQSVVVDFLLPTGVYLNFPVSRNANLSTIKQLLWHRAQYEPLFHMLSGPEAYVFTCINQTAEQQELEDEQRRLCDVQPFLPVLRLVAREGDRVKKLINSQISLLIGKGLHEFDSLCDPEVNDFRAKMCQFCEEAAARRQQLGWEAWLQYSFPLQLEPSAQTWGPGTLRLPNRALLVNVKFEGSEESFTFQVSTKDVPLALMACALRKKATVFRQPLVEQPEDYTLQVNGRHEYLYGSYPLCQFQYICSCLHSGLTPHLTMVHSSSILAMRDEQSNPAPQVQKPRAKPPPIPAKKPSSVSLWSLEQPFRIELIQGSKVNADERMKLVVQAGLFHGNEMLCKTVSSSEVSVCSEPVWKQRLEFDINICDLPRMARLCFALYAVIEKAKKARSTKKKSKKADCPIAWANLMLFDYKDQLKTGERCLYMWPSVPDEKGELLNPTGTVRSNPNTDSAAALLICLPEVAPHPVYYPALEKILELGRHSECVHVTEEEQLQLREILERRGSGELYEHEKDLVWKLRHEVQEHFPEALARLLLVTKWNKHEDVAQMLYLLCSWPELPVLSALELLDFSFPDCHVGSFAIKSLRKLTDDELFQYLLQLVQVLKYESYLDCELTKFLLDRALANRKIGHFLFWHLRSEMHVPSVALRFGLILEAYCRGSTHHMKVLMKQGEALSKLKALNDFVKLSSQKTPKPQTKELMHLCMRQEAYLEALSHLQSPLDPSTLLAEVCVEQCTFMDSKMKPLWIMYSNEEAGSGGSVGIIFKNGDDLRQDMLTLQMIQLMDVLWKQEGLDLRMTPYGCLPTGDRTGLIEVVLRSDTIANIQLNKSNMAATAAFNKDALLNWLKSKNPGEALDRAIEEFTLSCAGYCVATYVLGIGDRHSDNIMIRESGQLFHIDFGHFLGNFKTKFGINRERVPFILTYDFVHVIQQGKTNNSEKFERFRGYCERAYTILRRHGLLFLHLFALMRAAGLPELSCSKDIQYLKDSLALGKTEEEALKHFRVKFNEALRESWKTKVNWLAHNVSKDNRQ
Chain of PI3Kδ (p110δ/p85α) (P27986 whole entry partner, species assumed): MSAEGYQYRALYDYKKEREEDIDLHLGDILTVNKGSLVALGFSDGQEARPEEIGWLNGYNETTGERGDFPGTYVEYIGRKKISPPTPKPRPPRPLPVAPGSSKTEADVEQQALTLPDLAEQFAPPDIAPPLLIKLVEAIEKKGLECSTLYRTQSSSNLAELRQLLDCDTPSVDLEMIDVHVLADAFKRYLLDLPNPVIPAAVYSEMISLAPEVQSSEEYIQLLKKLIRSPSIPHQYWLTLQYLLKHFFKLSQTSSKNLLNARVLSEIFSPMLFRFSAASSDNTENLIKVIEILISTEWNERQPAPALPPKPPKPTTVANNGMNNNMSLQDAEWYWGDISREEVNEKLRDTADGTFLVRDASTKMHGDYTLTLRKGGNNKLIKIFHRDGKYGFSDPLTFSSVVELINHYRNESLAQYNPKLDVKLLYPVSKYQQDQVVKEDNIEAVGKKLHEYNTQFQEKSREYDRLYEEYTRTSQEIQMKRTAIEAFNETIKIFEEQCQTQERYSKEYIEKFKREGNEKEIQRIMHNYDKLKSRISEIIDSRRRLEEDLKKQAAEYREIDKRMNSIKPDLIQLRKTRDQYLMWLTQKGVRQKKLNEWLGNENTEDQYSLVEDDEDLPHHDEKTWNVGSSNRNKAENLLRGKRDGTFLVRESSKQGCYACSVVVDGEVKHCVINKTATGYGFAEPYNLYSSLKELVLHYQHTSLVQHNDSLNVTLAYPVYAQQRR
AlphaScreen™ Assay for PI3Kδ
The kinase reaction was conducted in 384-well REMP plate from Thermo Fisher Scientific in a final volume of 40 μL. Inhibitors were first diluted serially in DMSO and added to the plate wells before the addition of other reaction components. The final concentration of DMSO in the assay was 2%. The PI3K assays were carried out at room temperature in 50 mM HEPES, pH 7.4, 5 mM MgCl2, 50 mM NaCl, 5 mM DTT and CHAPS 0.04%. Reactions were initiated by the addition of ATP, the final reaction mixture consisted of 20 μM PIP2, 20 μM ATP, 1.2 nM PI3Kδ were incubated for 20 min. 10 μL of reaction mixture was then transferred to 5 μL 50 nM biotinylated I(1,3,4,5)P4 in quench buffer: 50 mM HEPES pH 7.4, 150 mM NaCl, 10 mM EDTA, 5 mM DTT, 0.1% Tween-20, followed with the addition of 10 μL AlphaScreen™ donor and acceptor beads suspended in quench buffer containing 25 nM PI(3,4,5)P3 detector protein. The final concentration of both donor and acceptor beads is […]. After plate sealing, the plate was incubated in a dark location at room temperature for 2 hours. The activity of the product was determined on Fusion-alpha microplate reader (Perkin-Elmer). IC50 determination was performed by fitting the curve of percent control activity versus the log of the inhibitor concentration using the GraphPad Prism 3.0 software.

Chain of PI3Kα (P42336 whole entry, species assumed, canonical isoform): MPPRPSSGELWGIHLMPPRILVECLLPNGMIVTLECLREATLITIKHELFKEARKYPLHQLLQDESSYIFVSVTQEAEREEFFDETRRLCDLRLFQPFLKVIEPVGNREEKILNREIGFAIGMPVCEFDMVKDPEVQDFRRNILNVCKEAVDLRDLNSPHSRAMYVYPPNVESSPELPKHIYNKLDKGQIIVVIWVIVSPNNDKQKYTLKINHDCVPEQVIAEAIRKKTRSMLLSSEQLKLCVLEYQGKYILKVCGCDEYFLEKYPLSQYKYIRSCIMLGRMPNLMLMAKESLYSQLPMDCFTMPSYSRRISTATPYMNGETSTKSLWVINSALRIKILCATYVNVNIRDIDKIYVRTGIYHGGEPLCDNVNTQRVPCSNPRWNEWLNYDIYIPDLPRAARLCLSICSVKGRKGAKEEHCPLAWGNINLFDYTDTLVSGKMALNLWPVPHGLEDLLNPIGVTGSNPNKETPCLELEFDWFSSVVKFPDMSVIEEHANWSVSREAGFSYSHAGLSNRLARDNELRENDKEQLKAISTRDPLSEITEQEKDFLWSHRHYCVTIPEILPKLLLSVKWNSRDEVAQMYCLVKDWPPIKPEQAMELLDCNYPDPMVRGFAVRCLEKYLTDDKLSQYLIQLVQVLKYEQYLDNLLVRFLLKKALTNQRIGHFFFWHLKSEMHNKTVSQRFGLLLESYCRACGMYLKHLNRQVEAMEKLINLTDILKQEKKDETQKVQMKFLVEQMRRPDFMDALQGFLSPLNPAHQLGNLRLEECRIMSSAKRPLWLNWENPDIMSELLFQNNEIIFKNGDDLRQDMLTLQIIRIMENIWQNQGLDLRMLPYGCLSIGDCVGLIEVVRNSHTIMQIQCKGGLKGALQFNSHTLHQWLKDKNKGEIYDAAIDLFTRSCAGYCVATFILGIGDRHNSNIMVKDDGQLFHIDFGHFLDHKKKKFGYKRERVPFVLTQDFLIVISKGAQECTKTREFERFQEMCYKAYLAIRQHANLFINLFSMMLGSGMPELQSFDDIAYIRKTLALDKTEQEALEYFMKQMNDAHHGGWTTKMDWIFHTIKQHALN
Chain of PI3Kα (P27986 whole entry partner, species assumed, canonical isoform): as the sequence (P27986 whole entry partner, species assumed) above

With `Cc1csc2nc(C(C)Nc3nc(N)nc4[nH]cnc34)c(-c3ccccc3)c(=O)n12` (stereo not drawn) [Example 9, 7-{1-[(2-amino-9H-purin-6-yl)amino]ethyl}-3-methyl-6-phenyl-5H-[1,3]thiazolo[3,2-a]pyrimidin-5-one], the half-maximal inhibitory concentration (IC50) against PI3Kα is > 500 nM; against PI3Kδ (p110δ/p85α) it was < 50 nM.
For `Cc1csc2nc(C(C)Nc3nc(N)nc4[nH]cnc34)c(-c3cccc(F)c3)c(=O)n12` (stereo not drawn) [Example 11, 7-{1-[(2-amino-9H-purin-6-yl)amino]ethyl}-6-(3-fluorophenyl)-3-methyl-5H-[1,3]thiazolo[3,2-a]pyrimidin-5-one], the IC50 on PI3Kα was > 500 nM; at PI3Kδ (p110δ/p85α), < 50 nM.
Regarding `Cc1csc2nc(C(C)Nc3nc(N)nc4[nH]cnc34)c(-c3cc(F)cc(F)c3)c(=O)n12` (stereo not drawn) [Example 13, 7-{1-[(2-amino-9H-purin-6-yl)amino]ethyl}-6-(3,5-difluorophenyl)-3-methyl-5H-[1,3]thiazolo[3,2-a]pyrimidin-5-one], the IC50 is > 500 nM on PI3Kα and < 50 nM against PI3Kδ (p110δ/p85α).
